In PubChem BioAssay (NCI):
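Cells were grown in 96-well plates and exposed to each compound for 48 hours at five concentrations; endpoints were interpolated linearly between bracketing concentrations, or set to the highest concentration if not reached. GI50 marks 50% less growth. At the TGI there is no net growth.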

Columns and labels:
Assay in all cases: NCI anticancer screen, dose series, 48 h
[1] = system: MALME-3M melanoma
[2] = system: HCT-15 colon
[3] = system: BT-549 breast
[4] = system: OVCAR-8 ovarian
[5] = system: T-47D breast
[6] = system: HOP-62 NSCLC
[7] = system: K-562 leukemia
[8] = system: EKVX NSCLC
[9] = system: MOLT-4 leukemia
[10] = system: MDA-MB-435
[11] = system: NCI/ADR-RES ovarian
[12] = system: SK-OV-3 ovarian
[13] = system: NCI-H522 lung
[14] = system: U251 CNS
[15] = system: SNB-75 CNS
[16] = system: RXF 393 renal
[17] = system: TK-10 renal
[18] = system: OVCAR-3 ovarian
[19] = system: LOX IMVI melanoma
[20] = system: MDA-MB-231 breast
[21] = system: M14 melanoma
[22] = system: A549 NSCLC
[23] = system: CCRF-CEM leukemia
[24] = system: HL-60(TB) leukemia
[25] = system: SR leukemia
[26] = system: IGROV1 ovarian
[27] = system: SK-MEL-2 melanoma
[28] = system: OVCAR-5 ovarian
[29] = system: DU-145 prostate
[30] = system: HCC-2998 colon
[31] = system: SN12C renal
[32] = system: NCI-H460 lung
[33] = system: KM12 colon
[34] = system: SF-539 CNS
[35] = system: HS 578T breast
[36] = system: SF-295 CNS
[37] = system: SF-268 CNS
[38] = system: HT29 colon
[39] = system: UACC-62 melanoma
[40] = system: UO-31 renal
[41] = system: PC-3 prostate
[42] = system: SK-MEL-5 melanoma
[43] = system: SW-620 colon
[44] = system: A498 renal
[45] = system: CAKI-1 renal
[46] = system: 786-0 renal
[47] = system: COLO 205 colon
[48] = system: MCF7 breast
[49] = system: HCT-116 colon
[50] = system: ACHN renal
[51] = system: UACC-257 melanoma
[52] = system: NCI-H23 lung
[53] = system: SNB-19 CNS
[54] = system: RPMI-8226 leukemia
[55] = system: SK-MEL-28 melanoma
[56] = system: OVCAR-4 ovarian
[57] = system: NCI-H226 lung

O=C(c1ccco1)c1nc2cc(Cl)ccc2[n+]([O-])c1C(F)(F)F
GI50 [1]: 47.9 µM
TGI [1]: > 100 µM
GI50 [2]: 32.7 µM
TGI [2]: > 100 µM
GI50 [3]: 35.1 µM
TGI [3]: > 100 µM
GI50 [4]: 57.1 µM
TGI [4]: > 100 µM
GI50 [5]: 27.5 µM
TGI [5]: > 100 µM
GI50 [6]: 76.7 µM
TGI [6]: > 100 µM
GI50 [7]: 22.2 µM
TGI [7]: 54.3 µM
GI50 [8]: 37.6 µM
TGI [8]: > 100 µM
GI50 [9]: 27.1 µM
TGI [9]: 66.6 µM
GI50 [10]: > 100 µM
TGI [10]: > 100 µM
GI50 [11]: 52.4 µM
TGI [11]: > 100 µM
GI50 [12]: > 100 µM
TGI [12]: > 100 µM
GI50 [13]: 45.1 µM
TGI [13]: > 100 µM
GI50 [14]: 70.9 µM
TGI [14]: > 100 µM
GI50 [15]: 46 µM
TGI [15]: > 100 µM
GI50 [16]: 19.5 µM
TGI [16]: 59.2 µM
GI50 [17]: 44.1 µM
TGI [17]: > 100 µM
GI50 [18]: > 100 µM
TGI [18]: > 100 µM
GI50 [19]: 48.4 µM
TGI [19]: > 100 µM
GI50 [20]: 34.2 µM
TGI [20]: > 100 µM
GI50 [21]: 59.1 µM
TGI [21]: > 100 µM
GI50 [22]: 63.3 µM
TGI [22]: > 100 µM
GI50 [23]: 0.0182 µM
TGI [23]: 0.443 µM
GI50 [24]: 24.3 µM
TGI [24]: 46.8 µM
GI50 [25]: 17.1 µM
TGI [25]: 44.3 µM
GI50 [26]: 54.5 µM
TGI [26]: > 100 µM
GI50 [27]: > 100 µM
TGI [27]: > 100 µM
GI50 [28]: > 100 µM
TGI [28]: > 100 µM
GI50 [29]: 76.5 µM
TGI [29]: > 100 µM
GI50 [30]: 18.5 µM
TGI [30]: 34.9 µM
GI50 [31]: 91 µM
TGI [31]: > 100 µM
GI50 [32]: 57 µM
TGI [32]: > 100 µM
GI50 [33]: 29.3 µM
TGI [33]: > 100 µM
GI50 [34]: > 100 µM
TGI [34]: > 100 µM
GI50 [35]: > 100 µM
TGI [35]: > 100 µM
GI50 [36]: 94 µM
TGI [36]: > 100 µM
GI50 [37]: 71.1 µM
TGI [37]: > 100 µM
GI50 [38]: 52.9 µM
TGI [38]: > 100 µM
GI50 [39]: 40.7 µM
TGI [39]: > 100 µM
GI50 [40]: > 100 µM
TGI [40]: > 100 µM
GI50 [41]: 13.7 µM
TGI [41]: 41.4 µM
GI50 [42]: 20.3 µM
TGI [42]: 49.6 µM
GI50 [43]: 39.1 µM
TGI [43]: > 100 µM
GI50 [44]: > 100 µM
TGI [44]: > 100 µM
GI50 [45]: 28.3 µM
TGI [45]: 73.9 µM
GI50 [46]: > 100 µM
TGI [46]: > 100 µM
GI50 [47]: > 100 µM
TGI [47]: > 100 µM
GI50 [48]: 41 µM
TGI [48]: > 100 µM
GI50 [49]: 40.6 µM
TGI [49]: > 100 µM
GI50 [50]: 51.2 µM
TGI [50]: > 100 µM
GI50 [51]: 4.07 µM
TGI [51]: 32.9 µM
GI50 [52]: 42 µM
TGI [52]: > 100 µM
GI50 [53]: 69 µM
TGI [53]: > 100 µM
GI50 [54]: 10.8 µM
TGI [54]: 44 µM
GI50 [55]: 90.1 µM
TGI [55]: > 100 µM
GI50 [56]: 29.2 µM
TGI [56]: 75.7 µM
GI50 [57]: 33.2 µM
TGI [57]: > 100 µM

CN(C)c1ccc(/C=C2\C[C@H]3[C@@H]4CCc5cc(OCCN6CCCC6)ccc5[C@H]4CC[C@]3(C)C2=O)cc1
TGI [2]: 2.66 µM
TGI [3]: > 100 µM
TGI [8]: 6.32 µM
TGI [27]: 3.93 µM
TGI [28]: 8.62 µM
TGI [31]: 2.97 µM
TGI [38]: 0.814 µM
TGI [39]: 4.24 µM
TGI [42]: 3.22 µM
TGI [46]: 2.6 µM
TGI [47]: 2.85 µM
TGI [49]: 2.45 µM
TGI [50]: 3.11 µM
TGI [51]: 5.35 µM
TGI [52]: > 100 µM
TGI [53]: 4.09 µM
